According to US4390526A, “Pharmaceutical agents for the treatment of sickle cell disease” (Yeda Research & Development Co. Ltd., priority 1979, dated 1983):
Where a SMILES comes first, the peptide text is derived from it.

Legend:
[1] = tested on: erythrocytes; details: literature values, Table II; cited from earlier work
[2] = tested on: erythrocytes of a sickle cell disease patient; experiment: Inhibition of sickling; format: cell-based, human; details: 30 minutes, deoxygenated with sodium metabisulphite
Description: A venous blood sample was obtained from the anticubital vein of a sickle cell disease patient and washed several times with phosphate buffer saline, pH 7.2, consisting of 145.4 mM NaCl, 4.0 mM KCl, 1.65 mM Na2 HPO4, 0.16 mM KH2 PO4, 0.01 mM MgCl2 and 11.1 mM glucose. The buffy coats were removed by aspiration. […] The mixture was well stoppered, incubated at 37° C. and swirled at about 100 cycles per minute in a controlled environment incubator. The standard control consisted of a 300 μl of a 20% cell suspension in the buffer in which the novel compound was dissolved. After an incubation period, 20 μl of the treated cell suspension was deoxygenated with 20 μl of 2.0% sodium metabisulphite or with nitrogen gas and examined with a Zeiss microscope.
[…] They were deoxygenated with sodium metabisulphite and examined under a Zeiss microscope.

[3] = tested on: erythrocytes; experiment: Transport of the novel compounds into erythrocytes; format: cell-based, human
Description: As sickle cell disease is caused by a defect of the erythrocytes, in order to study transport of a therapeutic agent for the treatment of the disease into erythrocytes, erythrocytes and no other cells must be used for the transport studies.
Washed erythrocytes were prepared by the method described in Example 2 and used for transport studies. The novel class of compounds were radioactively labelled, using for example, [^14 C]-L-Phe.

[4] = target: T1, purified HbS (Homo sapiens, UniProt P68871, E7V); experiment: Determination of antigelling property (modified method of Bookchin et al.); format: biochemical; details: deoxygenated with sodium dithionite, 37° C.; antigelling = fluid state for more than 20 minutes
T1 construct: 150 μl of 35% of purified HbS were added and vortexed; from tissue
Description: The antigelling property of the said new class of compounds was determined by a modified method of Bookchin et al. (1967); (see Bookchin et al, J. Biol. Chem., 242, 248-255, 1967). To 10 μl of a solution of the said new class of compounds in a micro test tube, at about 37° C., 150 μl of 35% of purified HbS were added and vortexed. 15 microliters of a 10% sodium dithionite in 0.05 M phosphate buffer, pH 7.2 were added. The mixture was thoroughly mixed and flushed with nitrogen and quickly stoppered. The micro test tube was incubated at 37° C. for 30 minutes and then transferred to 0° C. for 10 minutes and then returned to 37° C. for 30 minutes. A compound was defined as having antigelling properties when the HbS inhibition mixture remained in the fluid state for a period of more than 20 minutes at 37° C.

SMILES | Effective Concentration In Vitro (antisickling) [1] [mM] | Percentage of Normal Cells ([2]; 3 mM of the compound) [%] | other results
O=CC(O)CO (racemic) [DL--Glyceraldehyde] | 20 | – | –
O=C(Nc1ccccn1)c1ccccc1.O=C(O)c1ccccc1 [2(Benzoyl amino) pyridinium benzoate] | 50 | – | –
CC1(C)CCc2cc(CCCC(=O)O)ccc2O1 [3,4-dihydro-2,2-dimethyl 2H-1 Benzopyridirium-6-butyric acid] | 10 | – | –
Cl.N[C@@H](Cc1ccccc1)C(=O)OCc1ccccc1 [Compound 1, L--Phe--OBz.HCl] | – | 90 | transport into erythrocytes [3]: rapidly transported into erythrocytes by a carrier mediated process; Michaelis constant for transport ([3]; 14C-labelled compound, washed erythrocytes): 0.175 mM; PERCENT OF INCORPORATION ([3]; TIME 0): 0%; PERCENT OF INCORPORATION ([3]; TIME 10): 30%; PERCENT OF INCORPORATION ([3]; TIME 20): 70%; PERCENT OF INCORPORATION ([3]; TIME 30): 90%; PERCENT OF INCORPORATION ([3]; TIME 45): 100%; PERCENT OF INCORPORATION ([3]; TIME 60): 90%; moles of compound to one mole of HbS at which gelation of HbS is inhibited [4]: 6 moles to one mole HbS
Cl.N[C@@H](Cc1ccc(O)cc1)C(=O)OCc1ccccc1 [Compound 2, L--Tyr--OBz.HCl] | – | – | Percentage of Normal Cells ([2]; 0.5 mM of compound): 70%
Cl.N[C@@H](Cc1c[nH]c2ccccc12)C(=O)OCc1ccccc1 [Compound 3, L--Try--OBz.HCl] | – | – | Percentage of Normal Cells ([2]; 0.5 mM of compound): 95%; moles of compound to one mole of HbS at which gelation of HbS is inhibited [4]: 4 moles to one mole HbS
Cl.O=C(OCc1ccccc1)[C@@H]1CCCN1 [Compound 4, L--Pro--OBz.HCl] | – | 60 | –
Br.N[C@@H](Cc1ccccc1)C(=O)OCc1ccc([N+](=O)[O-])cc1 [Compound 6, L--Phe--OBz (pNO2).HBr] | – | 90 | –
Br.O=C(OCc1ccc([N+](=O)[O-])cc1)[C@@H]1CCCN1 [Compound 7, L--Pro--OBz (pNO2).HBr] | – | 80 | –
Cc1ccc(S(=O)(=O)O)cc1.NC(Cc1c[nH]cn1)C(=O)OCc1ccc([N+](=O)[O-])cc1 [Compound 8, L--His--OBz (pNO2) pTS] | – | 70 | –
Br.C[C@H](N)C(=O)N[C@@H](Cc1ccccc1)C(=O)OCc1ccccc1 [Compound 9, L--Ala--L--Phe--OBz.HBr] | – | 90 | –
Br.NCC(=O)N[C@@H](Cc1ccccc1)C(=O)OCc1ccccc1 [Compound 10, L--Gly--L--Phe--OBz.HBr] (HELM PEPTIDE1{G.F.[c1ccc(CO[*:1])cc1]}$$$$V2.0) | – | 90 | –
N[C@@H](Cc1ccccc1)C(=O)NCc1ccccc1 [Compound 11, L--Phe--Benzyl amide] | – | 70 | –
CC(C)[C@H](N)C(=O)OCc1ccccc1 [Compound 12, L--Val--OBz] | – | 50 | –
CC(C)C[C@H](N)C(=O)OCc1ccccc1 [Compound 13, L--Leu--OBz] | – | 55 | –
Br.CC(NC(=O)C(N)Cc1ccccc1)C(=O)OCc1ccccc1 [Compound 14, L--Phe--L--Ala--OBz.HBr] | – | 70 | –
Br.NCCCC[C@H](NC(=O)[C@@H](N)Cc1c[nH]c2ccccc12)C(=O)OCc1ccccc1 [Compound 15, L--Try--Lys--OBz.HBr] (HELM PEPTIDE1{W.K.[c1ccc(CO[*:1])cc1]}$$$$V2.0) | – | 70 | –
Cl.N[C@H](Cc1ccccc1)C(=O)OCc1ccccc1 [Compound 16, D--Phe--OBz.HCl] | – | 90 | moles of compound to one mole of HbS at which gelation of HbS is inhibited [4]: 6 moles to one mole HbS
CCCCCCCCCCCCCCCCCCOC(=O)[C@@H](N)Cc1ccc(O)cc1.Cl [Compound 17, L--Tyr--O Octadecyl.HCl, reference compound] | – | 10 | –
N[C@@H](Cc1ccccc1)C(=O)O [Compound 18, L--Phe, reference compound] | – | 0 | –
NCCSSCCN [Cystamine] | 220 | – | –
CC(=O)Oc1c(Br)cc(Br)cc1C(=O)O [Dibromo aspirin] | 5 | – | –
COC(=N)CCCCC(=N)OC [Dimethyl Adipimidate] | 10 | – | –
N#C[O-].[K+] [Potassium Cyanate] | 100 | – | –
Cc1ncc(CO)c(C=O)c1O [Pyridoxal] | 20 | – | –
NC(N)=O [Urea] | 100 | – | –
